The structures appear in SMILES notation.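 Growth conditions: 96-well plates. Treatment: test compound, 48 hours, 5 concentrations. Analysis: linear interpolation between bracketing concentrations; unreached endpoints set to highest concentration. GI50 marks 50% less growth. TGI: concentration producing complete growth inhibition.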 Where only a bound is given, the exact number is not on record here.

Experiment in all cases: growth of human tumour cells (NCI), 48 h
In assay [1] the test system is U251 CNS.
Assay [2] relates to HCT-116 colon.
In assay [3] the test system is NCI-H460 lung.
Assay [4] relates to SNB-19 CNS.
Assay [5] deals with SK-MEL-28 melanoma.
The subject of assay [6] is UO-31 renal.
The test system of assay [7] is SNB-75 CNS.
The subject of assay [8] is M14 melanoma.
Assay [9] deals with HCT-15 colon.
Assay [10] concerns MCF7 breast.

`COc1ccc2nc3cc(Cl)ccc3c(SCC(=O)Nc3ccccc3-c3ccccc3NC(=O)CSc3c4ccc(Cl)cc4nc4ccc(OC)cc34)c2c1`: the TGI in assay [1], in assay [2], in assay [3], in assay [4], in [5] and in [6] was more than 100 µM in each case. In addition, the TGI in assay [7], in assay [8] and in assay [9] was more than 100 µM in each case.

`CC1(C)CC2CC(CC(C)(C)C2=O)C1=O`: the TGI in [1], in assay [2], in assay [3], in [4], in assay [5] and in assay [6] was more than 100 µM each time. The TGI in [7], in assay [8] and in [9] was more than 100 µM in each case.

Take `CCSc1nc(SCC)c2c(-c3ccc(OC)c(OC)c3)c(C#N)c(SCC)nc2n1`: the GI50 in assay [10] was 14.8 µM; in [1] it was 22.7 µM; in [2], 30.3 µM; in assay [3], 21.8 µM; in assay [4], 47.7 µM; in assay [5] it was 41.8 µM. For the same compound, the GI50 in assay [6] is 32.9 µM; in assay [8], 56.2 µM; in assay [9], 24.6 µM. In addition, the TGI was more than 100 µM in assay [10]; 48.3 µM in [1]; more than 100 µM in assay [2]; more than 100 µM in assay [3]; more than 100 µM in assay [4]; more than 100 µM in [5]. The values for the TGI in assay [6], in assay [8] and in assay [9] were more than 100 µM, more than 100 µM and 61.2 µM, respectively.

`COc1cccc(NC(=O)CC(=O)N2N=C(N3c4ccccc4Sc4ccccc43)CC2c2ccccc2)c1` (configuration not stated): the TGI in [1], in [2], in [3], in [4], in [5] and in assay [6] was more than 100 µM in each case. Further, the TGI in assay [7], in [8] and in assay [9] was more than 100 µM in each case.

For `O=C(N/C(=C\c1ccc(/C=C(\NC(=O)c2ccccc2)c2nc3ccccc3[nH]2)cc1)c1nc2ccccc2[nH]1)c1ccccc1`, the TGI in [1], in [2], in [3], in [4], in assay [5] and in assay [6] was more than 100 µM throughout. Moreover, the TGI in assay [7], in assay [8] and in assay [9] was more than 100 µM in each case.

With `COc1cc2c(cc1OC)[C@@H](Nc1ccc(F)cc1)C1COC(=O)[C@@H]1C2c1cc(OC)c(O)c(OC)c1` (some centres not stated), the TGI in assay [1] is 4.03 µM; in assay [2], more than 100 µM; in assay [3], 2.16 µM; in assay [4], more than 100 µM; in assay [5] it was more than 100 µM; in assay [6], 15.4 µM. The values for the TGI in [7], in assay [8] and in assay [9] were more than 48 µM, 10.5 µM and more than 32.1 µM, respectively.

On to `CCc1cccc(C)c1NC(=O)C1=C(C)NC(C)=C(C(=O)Nc2c(C)cccc2CC)C1c1ccc2c(c1)OCO2`, for which the TGI in assay [1] is 32.1 µM; in assay [3], 45.5 µM; in assay [4], 96.4 µM; in assay [5], 32.7 µM; in assay [6], 28.7 µM; in assay [7] it was 91.9 µM. For the same compound, the TGI in assay [8] worked out at 33.8 µM.

`CCCN(CCC)C(=O)C(=O)c1c(N)[nH]n(-c2ccccc2)c1=O`: the TGI in [1], in [2], in assay [3], in [4], in assay [6] and in assay [8] was more than 100 µM throughout. The compound also yielded a TGI in assay [9] of more than 100 µM.

`COc1ccc(COC2CC(OC)OC(C)C2OC(=O)c2ccccc2)cc1` (configuration not stated): the TGI was more than 100 µM in [1]; more than 84 µM in assay [2]; more than 100 µM in assay [3]; more than 100 µM in [4]; more than 100 µM in [5]; 70.7 µM in [6]. Also, the TGI in assay [7] is more than 100 µM; in assay [8] it was more than 100 µM; in assay [9], more than 59.5 µM.

Take `CNC(=O)OCc1c2ccncc2c(C)c2c1[nH]c1ccc(OC)cc12`: the TGI in assay [1] was 0.893 µM; in [2] it was 0.777 µM; in assay [3] it was 1.3 µM; in assay [4] it was 1.93 µM; in [5], 2.04 µM; in assay [6], 0.395 µM. In addition, the figures for the TGI in [8] and in [9] were 1.81 µM and more than 100 µM, respectively.

Consider `COc1cccc(NC(=O)CC(=O)N2N=C(n3ccc4ccccc43)CC2c2ccccc2)c1` (configuration not stated), for which the TGI in assay [1], in [2], in assay [3], in assay [4], in assay [5] and in assay [6] was more than 100 µM in each case. Moreover, the TGI in assay [7], in assay [8] and in [9] was more than 100 µM each time.

Turning to `CCOc1ccc(NC(=O)C(=O)C(C(=O)c2ccc3ccccc3c2)C2OC(=O)c3ccccc32)cc1` (configuration not stated), the TGI was 24.4 µM in assay [1]; 35.1 µM in assay [2]; more than 100 µM in assay [3]; more than 100 µM in assay [4]; 37.5 µM in [5]; 34 µM in assay [6]. Further, the results for the TGI in [7], in assay [8] and in assay [9] were 64.9 µM, 42.2 µM and 43.4 µM, respectively.

Regarding `C[C@]12CCC(=O)CC1CCCC2=O` (some centres not stated), the TGI in [1], in [2], in assay [3], in assay [4], in [5] and in assay [6] was more than 100 µM throughout. For the same compound, the TGI in assay [7], in [8] and in assay [9] was more than 100 µM throughout.

Consider `Cn1cc(-c2csc(-c3cn(CCCN4CCCCC4)c4ccccc34)n2)c2cccnc21`, for which the GI50 is 1.65 µM in [10]; 1.87 µM in [1]; 2.04 µM in [3]; 1.83 µM in assay [4]; 1.7 µM in [5]; 1.51 µM in assay [6]. Further, the results for the GI50 in assay [8] and in assay [9] were 1.82 µM and 1.7 µM, respectively. Moreover, the TGI was found to be 3.29 µM in assay [10]; 3.38 µM in assay [1]; 4 µM in assay [3]; 3.34 µM in assay [4]; 3.19 µM in assay [5]; 2.93 µM in [6]. Further, the figures for the TGI in [8] and in [9] were 3.38 µM and 3.2 µM, respectively.
